Patent US8822520B2, “Substituted bicyclic HCV inhibitors” (Presidio Pharmaceuticals, Inc., priority 2010, dated 2014)

Tested on: HCV genotype 1b replicon in Huh 7 cells (HCV 1b_Huh-Luc/Neo-ET cell line)
Assay: HCV replicon assay (luciferase readout)
Type: cell-based
Conditions: Hepatitis C virus, Huh-7, 72 h, read-out: Inhibition of HCV genotype lb
Experimental: Biological activity of the compounds of the invention was determined using an HCV replicon assay. The HCV 1b_Huh-Luc/Neo-ET cell line persistently expressing a bicistronic genotype 1b replicon in Huh 7 cells was obtained from ReBLikon GMBH. This cell line was used to test compound inhibition using luciferase enzyme activity readout as a measurement of compound inhibition of replicon levels.
On Day 1 (the day after plating cells), each compound is added in triplicate to the cells. Plates are incubated for 72 h prior to determining luciferase levels. Enzyme activity was measured using a Bright-Glo Kit (cat. number E2620) manufactured by Promega Corporation. The following equation was used to generate a percent control value for each compound. % Control=(Compound Luciferase Level/Control Luciferase Level)*100
The EC50 value was determined using GraphPad Prism and the following equation: Y=Bottom asymptote+(Top asymptote−Bottom asymptote)/(1+10^((Log EC50−X)*HillSlope))
EC50 values of compounds are determined several times in the replicon assay to generate average EC50 values.

| SMILES | EC50 [nM] |
| --- | --- |
| CNC(=O)N[C@@H](C(=O)N1CCC[C@H]1c1ncc(-c2ccc(-c3ccc(-c4cnc([C@@H]5CCCN5C(=O)[C@H](NC(=O)NC)c5ccccc5)[nH]4)cc3OCCOC)c(OCCOC)c2)[nH]1)c1ccccc1 [Compound 85] | 1 to 9.9 |
| COCCOc1cc(-c2cnc([C@@H]3CCCN3C(=O)[C@@H](NC(=O)OC)C(C)C)[nH]2)ccc1-c1ccc(-c2cnc([C@@H]3CCCN3C(=O)[C@H](NC(=O)OC)c3cccs3)[nH]2)cc1OCCOC [Compound 89] | < 1 |
| COCCOc1cc(-c2cnc([C@@H]3CCCN3C(=O)[C@@H](c3ccccc3)N3CCCC3)[nH]2)ccc1-c1ccc(-c2cnc([C@@H]3CCCN3C(=O)[C@@H](c3ccccc3)N3CCCC3)[nH]2)cc1OCCOC [Compound 82] | 1 to 9.9 |
| COCCOc1cc(-c2cnc([C@@H]3CCCN3C(=O)[C@@H](NC(=O)OC)C(C)C)[nH]2)ccc1-c1ccc(-c2cnc([C@@H]3CCCN3C(=O)[C@@H](NC(=O)OC)C(C)C)[nH]2)cc1 [Compound 52] | < 1 |
| COCCOc1cc(-c2cnc([C@@H]3CCCN3C(=O)[C@H](COC)NC(=O)OC)[nH]2)ccc1-c1ccc(-c2cnc([C@@H]3CCCN3C(=O)[C@H](COC)NC(=O)OC)[nH]2)cc1OCCOC [Compound 75] | 1 to 9.9 |
| COCCOc1cc(-c2cnc([C@@H]3CCCN3C(=O)[C@H](NS(C)(=O)=O)c3ccccc3)[nH]2)ccc1-c1ccc(-c2cnc([C@@H]3CCCN3C(=O)[C@H](NS(C)(=O)=O)c3ccccc3)[nH]2)cc1OCCOC [Compound 84] | 1 to 9.9 |
| COCCOc1cc(-c2cnc([C@@H]3CCCN3C(=O)[C@H](C)NC(=O)OC)[nH]2)ccc1-c1ccc(-c2cnc([C@@H]3CCCN3C(=O)[C@@H](NC(=O)OC)C(C)C)[nH]2)cc1OCCOC [Compound 86] | 1 to 9.9 |
| COCCOc1cc(-c2cnc([C@@H]3CCCN3C(=O)[C@@H](NC(=O)OC)C(C)C)[nH]2)cc(OCCOC)c1-c1ccc(-c2cnc([C@@H]3CCCN3C(=O)[C@@H](NC(=O)OC)C(C)C)[nH]2)cc1 [Compound 92] | < 1 |
| COC(=O)N[C@H](C(=O)N1CCC[C@H]1c1ncc(-c2ccc(-c3ccc(-c4cnc([C@@H]5CCCN5C(=O)[C@@H](NC(=O)OC)C(C)C)[nH]4)c4c3OCCOCCOCCO4)cc2)[nH]1)C(C)C [Compound 80] | < 1 |
| COCCOc1c(-c2ccc(-c3cnc([C@@H]4C[C@@H](O)CN4C(=O)[C@@H](NC(=O)OC)C(C)C)[nH]3)cc2)ccc(-c2cnc([C@@H]3CCCN3C(=O)[C@@H](NC(=O)OC)C(C)C)[nH]2)c1OCCOC [Compound 60] | < 1 |
| COCCOc1cc(-c2cnc([C@@H]3CCCN3C(=O)[C@H](NC(=O)OC)c3cccs3)[nH]2)ccc1-c1ccc(-c2cnc([C@@H]3CCCN3C(=O)[C@H](NC(=O)OC)c3cccs3)[nH]2)cc1OCCOC [Compound 79] | < 1 |
| COCCOc1cc(-c2cnc([C@@H]3CCCN3C(=O)[C@@H](NC(=O)OC)C(C)C)[nH]2)ccc1-c1ccc(-c2cnc([C@@H]3CCCN3C(=O)[C@@H](c3ccccc3)N(C)C)[nH]2)cc1OCCOC [Compound 90] | 1 to 9.9 |
| COCCOc1cc(-c2cnc([C@@H]3CCCN3C(=O)[C@H](NC(C)=O)c3ccccc3)[nH]2)ccc1-c1ccc(-c2cnc([C@@H]3CCCN3C(=O)[C@H](NC(C)=O)c3ccccc3)[nH]2)cc1OCCOC [Compound 83] | 1 to 9.9 |

Same assay, conditions: Hepatitis C virus, Huh-7; Table 1; EC50 range class; replicon luciferase, 72 h incubation, average EC50; read-out: Inhibition of HCV genotype 1b

| SMILES | EC50 [nM] |
| --- | --- |
| COCCOc1c(-c2ccc(-c3cnc([C@@H]4CCCN4C(=O)[C@H](NC(=O)OC)c4ccccc4)[nH]3)cc2)ccc(-c2cnc([C@@H]3CCCN3C(=O)[C@H](NC(=O)OC)c3ccccc3)[nH]2)c1OCCOC [Compound 20] | < 1 |
| COCCOc1c(-c2ccc(-c3cnc([C@@H]4CCCN4C(=O)[C@H](NS(C)(=O)=O)c4ccccc4)[nH]3)cc2)ccc(-c2cnc([C@@H]3CCCN3C(=O)[C@H](NS(C)(=O)=O)c3ccccc3)[nH]2)c1OCCOC [Compound 17] | < 1 |
| CNC(=O)N[C@@H](C(=O)N1CCC[C@H]1c1ncc(-c2ccc(-c3ccc(-c4cnc([C@@H]5CCCN5C(=O)[C@H](NC(=O)NC)c5ccccc5)[nH]4)c(OCCOC)c3OCCOC)cc2)[nH]1)c1ccccc1 [Compound 24] | < 1 |
| COCCOc1c(-c2ccc(-c3cnc([C@@H]4COCCN4C(=O)[C@@H](NC(=O)OC)C(C)C)[nH]3)cc2)ccc(-c2cnc([C@@H]3CCCN3C(=O)[C@@H](NC(=O)OC)C(C)C)[nH]2)c1OCCOC [Compound 40] | 1 to 9.9 |
| COCCOc1c(-c2ccc(-c3cnc([C@@H]4CCCN4C(=O)[C@@H](NC(=O)OC)C(C)C)[nH]3)cc2)ccc(-c2cnc([C@@H]3CCCN3C(=O)[C@H](COC)NC(=O)OC)[nH]2)c1OCCOC [Compound 27] | < 1 |
| COCCOc1cc(-c2cnc([C@@H]3CCCN3C(=O)[C@H](C)NC(=O)OC)[nH]2)ccc1-c1ccc(-c2cnc([C@@H]3CCCN3C(=O)[C@H](C)NC(=O)OC)[nH]2)cc1OCCOC [Compound 6] | 10 to 999 |
| COCCOc1c(-c2ccc(-c3cnc([C@@H]4CCCN4C(=O)[C@H](NC(=O)OC)c4ccsc4)[nH]3)cc2)ccc(-c2cnc([C@@H]3CCCN3C(=O)[C@H](NC(=O)OC)c3ccsc3)[nH]2)c1OCCOC [Compound 21] | < 1 |
| COCCOc1cc(-c2cnc([C@@H]3CCCN3C(=O)[C@@H](NC(=O)OC)C(C)C)[nH]2)ccc1-c1ccc(-c2cnc([C@@H]3CCCN3C(=O)[C@@H](NC(=O)OC)C3CCCC3)[nH]2)cc1OCCOC [Compound 36] | < 1 |
| COCCOc1c(-c2ccc(-c3cnc([C@@H]4CCCN4C(=O)[C@@H](NC(=O)OC)C(C)C)[nH]3)cc2)ccc(-c2cnc([C@@H]3CCCN3C(=O)[C@@H](NC(=O)OC)C(C)C)[nH]2)c1OCCOC [Compound 2] | < 1 |
| COCCOc1c(-c2ccc(-c3cnc([C@@H]4CCCN4C(=O)[C@@H](c4ccccc4)N4CCCC4)[nH]3)cc2)ccc(-c2cnc([C@@H]3CCCN3C(=O)[C@@H](c3ccccc3)N3CCCC3)[nH]2)c1OCCOC [Compound 16] | 1 to 9.9 |
| COCCOc1c(-c2ccc(-c3cnc([C@@H]4CCCN4C(=O)[C@@H](NC(=O)OC)C(C)C)[nH]3)cc2)ccc(-c2cnc([C@@H]3CCCN3C(=O)[C@H](NC(=O)OC)c3cccs3)[nH]2)c1OCCOC [Compound 32] | < 1 |
| COCCOc1c(-c2ccc(-c3cnc([C@@H]4CCCN4C(=O)[C@@H](NC(=O)OC)C(C)C)[nH]3)cc2)ccc(-c2cnc([C@@H]3CCCN3C(=O)[C@@H](NC(=O)OC)[C@@H](C)OC)[nH]2)c1OCCOC [Compound 28] | < 1 |
| COCCOc1c(-c2ccc(-c3cnc([C@@H]4CCCN4C(=O)[C@@H](c4ccccc4)N(C)C)[nH]3)cc2)ccc(-c2cnc([C@@H]3CCCN3C(=O)[C@@H](c3ccccc3)N(C)C)[nH]2)c1OCCOC [Compound 15] | < 1 |
| COCCOc1c(-c2ccc(-c3cnc([C@@H]4CCCN4C(=O)[C@@H](NC(=O)OC)C(C)C)[nH]3)cc2)ccc(-c2cnc([C@@H]3CCCN3C(=O)[C@H](NC(=O)OC)c3ccccc3)[nH]2)c1OCCOC [Compound 30] | < 1 |
| COCCOc1c(-c2ccc(-c3cnc([C@@H]4CSCN4C(=O)[C@@H](NC(=O)OC)C(C)C)[nH]3)cc2)ccc(-c2cnc([C@@H]3CCCN3C(=O)[C@@H](NC(=O)OC)C(C)C)[nH]2)c1OCCOC [Compound 41] | 1 to 9.9 |
| COCCOc1c(-c2ccc(-c3cnc([C@@H]4CCCN4C(=O)[C@H](C)NC(=O)OC)[nH]3)cc2)ccc(-c2cnc([C@@H]3CCCN3C(=O)[C@H](C)NC(=O)OC)[nH]2)c1OCCOC [Compound 10] | < 1 |
| CC[C@H](C)[C@H](NC(=O)OC)C(=O)N1CCC[C@H]1c1ncc(-c2ccc(-c3ccc(-c4cnc([C@@H]5CCCN5C(=O)[C@@H](NC(=O)OC)C(C)C)[nH]4)cc3)c(OCCOC)c2OCCOC)[nH]1 [Compound 19] | < 1 |
| COCCOc1cc(-c2cnc([C@@H]3CCCN3C(=O)[C@@H](NC(=O)OC)C(C)C)[nH]2)ccc1-c1ccc(-c2cnc([C@@H]3CCCN3C(=O)[C@@H](NC(=O)OC)C(C)C)[nH]2)cc1OCCOC [Compound 1] | < 1 |
| COCCOc1cc(-c2cnc([C@@H]3CCCN3C(=O)[C@@H](NC(=O)OC)C(C)C)[nH]2)ccc1-c1ccc(-c2cnc([C@@H]3CCCN3C(=O)[C@@H](c3ccccc3)N3CCCC3)[nH]2)cc1OCCOC [Compound 38] | 1 to 9.9 |
| COCCOc1c(-c2ccc(-c3cnc([C@@H]4CCCN4C(=O)[C@H](NC(=O)OC)C(C)C)[nH]3)cc2)ccc(-c2cnc([C@@H]3CCCN3C(=O)[C@H](C)NC(=O)OC)[nH]2)c1OCCOC [Compound 18] | 1 to 9.9 |
| COCCOc1c(-c2ccc(-c3cnc([C@@H]4CCCN4C(=O)[C@@H](NC(=O)OC)C(C)(C)C)[nH]3)cc2)ccc(-c2cnc([C@@H]3CCCN3C(=O)[C@@H](NC(=O)OC)C(C)(C)C)[nH]2)c1OCCOC [Compound 13] | 1 to 9.9 |
| COCCOc1cc(-c2cnc([C@@H]3CCCN3C(=O)[C@@H](NC(=O)OC)C3CCCC3)[nH]2)ccc1-c1ccc(-c2cnc([C@@H]3CCCN3C(=O)[C@@H](NC(=O)OC)C3CCCC3)[nH]2)cc1OCCOC [Compound 8] | < 1 |
| COC(=O)N[C@H](C(=O)N1CCC[C@H]1c1ncc(-c2ccc3c(c2)OCCOCCOCCOCCOCCOc2cc-3ccc2-c2cnc([C@@H]3CCCN3C(=O)[C@@H](NC(=O)OC)C(C)C)[nH]2)[nH]1)C(C)C [Compound 43] | 1 to 9.9 |
| COCCOc1c(-c2ccc(-c3cnc([C@@H]4CCCN4C(=O)[C@@H](NC(=O)OC)C(C)C)[nH]3)cc2)ccc(-c2cnc([C@@H]3CCCN3C(=O)[C@@H](NC(=O)OC)C3CCCC3)[nH]2)c1OCCOC [Compound 29] | < 1 |
